Test results: PubChem BioAssay (NCI)
“And” between values parts separate entries of the source, which are not always exact repeats. Identical values can stand only once.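 Following 48 hours of exposure in 96-well plates, responses at five concentrations were used to interpolate endpoints linearly. Here, GI50 denotes the concentration required for 50% inhibition of growth. Definition used: TGI = concentration required for complete inhibition of growth.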

Experiments:
Test in all cases: inhibition of tumour cell growth, NCI panel, 48 h
OVCAR-4 ovarian = system: OVCAR-4 ovarian
HOP-92 NSCLC = system: HOP-92 NSCLC
BT-549 breast = system: BT-549 breast
HCT-116 colon = system: HCT-116 colon
HCC-2998 colon = system: HCC-2998 colon
OVCAR-5 ovarian = system: OVCAR-5 ovarian
SK-MEL-2 melanoma = system: SK-MEL-2 melanoma
NCI-H460 lung = system: NCI-H460 lung
MDA-MB-435 = system: MDA-MB-435
CAKI-1 renal = system: CAKI-1 renal

O=C1CC/C(=C/COc2cc(=O)oc3ccccc23)O1
GI50 (OVCAR-4 ovarian): 1.62 µM
TGI (OVCAR-4 ovarian): 14.4 µM
GI50 (HOP-92 NSCLC): 10.5 µM
TGI (HOP-92 NSCLC): 26.9 µM
GI50 (BT-549 breast): 11.5 µM
TGI (BT-549 breast): 24.7 µM
GI50 (HCT-116 colon): 6.95 µM
TGI (HCT-116 colon): 19.7 µM
GI50 (HCC-2998 colon): 15.5 µM
TGI (HCC-2998 colon): 29.5 µM
GI50 (OVCAR-5 ovarian): 3.68 µM
TGI (OVCAR-5 ovarian): 22.2 µM
GI50 (SK-MEL-2 melanoma): 6.78 µM
TGI (SK-MEL-2 melanoma): 37.1 µM
GI50 (NCI-H460 lung): 17.5 µM
TGI (NCI-H460 lung): 47.2 µM
GI50 (MDA-MB-435): 7.11 µM
TGI (MDA-MB-435): 22.1 µM
GI50 (CAKI-1 renal): 11.9 µM
TGI (CAKI-1 renal): 28.3 µM

CN(C)c1ccc(/C=N/S(=O)(=O)c2ccc(-n3c(-c4ccccc4)nc4c(Br)cc(Br)cc4c3=O)cc2)cc1
GI50 (OVCAR-4 ovarian): 30.3 µM
TGI (OVCAR-4 ovarian): 97.3 µM
GI50 (HOP-92 NSCLC): 22.7 µM
TGI (HOP-92 NSCLC): 71.6 µM
GI50 (BT-549 breast): 30.6 µM
TGI (BT-549 breast): > 68.8 µM
GI50 (HCT-116 colon): 33.2 µM
TGI (HCT-116 colon): > 100 µM
GI50 (HCC-2998 colon): 51.2 µM
TGI (HCC-2998 colon): > 100 µM
GI50 (OVCAR-5 ovarian): > 69.5 µM
TGI (OVCAR-5 ovarian): > 100 µM
GI50 (SK-MEL-2 melanoma): 23.6 µM
TGI (SK-MEL-2 melanoma): > 96.1 µM
GI50 (NCI-H460 lung): 28.5 µM
TGI (NCI-H460 lung): > 100 µM
GI50 (MDA-MB-435): 42 µM
TGI (MDA-MB-435): > 90.7 µM
GI50 (CAKI-1 renal): 47.5 µM
TGI (CAKI-1 renal): > 100 µM

C[C@@H](CO)NC(=O)c1cc(-c2ccc(Cl)cc2)nn(-c2cnn(C)c2)c1=O
GI50 (OVCAR-4 ovarian): 45.9 µM
TGI (OVCAR-4 ovarian): > 100 µM
GI50 (HOP-92 NSCLC): 16.6 µM
TGI (HOP-92 NSCLC): > 100 µM
GI50 (BT-549 breast): 23.7 µM
TGI (BT-549 breast): 86.9 µM
GI50 (HCT-116 colon): 19.1 µM
TGI (HCT-116 colon): > 100 µM
GI50 (HCC-2998 colon): 23.1 µM
TGI (HCC-2998 colon): > 100 µM
GI50 (OVCAR-5 ovarian): 28.7 µM
TGI (OVCAR-5 ovarian): > 100 µM
GI50 (SK-MEL-2 melanoma): 59.9 µM
TGI (SK-MEL-2 melanoma): > 100 µM
GI50 (NCI-H460 lung): 30 µM
TGI (NCI-H460 lung): > 100 µM
GI50 (MDA-MB-435): 50.3 µM
TGI (MDA-MB-435): > 100 µM
GI50 (CAKI-1 renal): 10.4 µM
TGI (CAKI-1 renal): > 100 µM

CCc1nc(N)nc(N)c1-c1ccc(Cl)c(N=[N+]=[N-])c1
TGI (OVCAR-4 ovarian): 97.7 µM and > 100 µM
TGI (HOP-92 NSCLC): > 90.7 µM and 68.2 µM
GI50 (BT-549 breast): 6.14 µM and 15.2 µM
TGI (BT-549 breast): 48.8 µM and 77.7 µM
TGI (HCT-116 colon): > 80.6 µM and 65.1 µM
TGI (HCC-2998 colon): 23 µM and 30.8 µM
TGI (OVCAR-5 ovarian): > 100 µM
TGI (SK-MEL-2 melanoma): 41.3 µM and 43.7 µM
GI50 (NCI-H460 lung): 0.463 µM and 1.23 µM
TGI (NCI-H460 lung): > 81.7 µM
TGI (MDA-MB-435): 36.7 µM and > 83.7 µM
GI50 (CAKI-1 renal): 19.3 µM and 7.29 µM
TGI (CAKI-1 renal): 99.5 µM and > 96.4 µM

COc1ccc(CCN2CCC(CN(C)Cc3cnn(-c4ccccc4)c3)CC2)cc1
GI50 (OVCAR-4 ovarian): 7.75 µM
TGI (OVCAR-4 ovarian): 57.5 µM
GI50 (HOP-92 NSCLC): 4.61 µM
TGI (HOP-92 NSCLC): 19.3 µM
GI50 (BT-549 breast): 14.5 µM
TGI (BT-549 breast): 36.2 µM
GI50 (HCT-116 colon): 11.8 µM
TGI (HCT-116 colon): 25.6 µM
GI50 (HCC-2998 colon): 5.13 µM
TGI (HCC-2998 colon): 18.1 µM
GI50 (OVCAR-5 ovarian): 14.8 µM
TGI (OVCAR-5 ovarian): 58.3 µM
GI50 (SK-MEL-2 melanoma): 17.3 µM
TGI (SK-MEL-2 melanoma): 32.8 µM
GI50 (NCI-H460 lung): 18.7 µM
TGI (NCI-H460 lung): 39.2 µM
GI50 (MDA-MB-435): 2.54 µM
TGI (MDA-MB-435): 6.8 µM
GI50 (CAKI-1 renal): 5.42 µM
TGI (CAKI-1 renal): 19.9 µM

CN(CCC(=O)/C(=C\c1ccccc1)c1ccc(Cl)cc1)Cc1ccccc1
GI50 (OVCAR-4 ovarian): 3.15 µM
TGI (OVCAR-4 ovarian): 12.7 µM
GI50 (HOP-92 NSCLC): 2.55 µM
TGI (HOP-92 NSCLC): 6.16 µM
GI50 (BT-549 breast): 2.94 µM
TGI (BT-549 breast): 8.76 µM
GI50 (HCT-116 colon): 2.35 µM
TGI (HCT-116 colon): 5.73 µM
GI50 (HCC-2998 colon): 3.54 µM
TGI (HCC-2998 colon): 9.77 µM
GI50 (OVCAR-5 ovarian): 3.53 µM
TGI (OVCAR-5 ovarian): 10.4 µM
GI50 (SK-MEL-2 melanoma): 2.6 µM
TGI (SK-MEL-2 melanoma): 7.23 µM
GI50 (NCI-H460 lung): 3.18 µM
TGI (NCI-H460 lung): 11.2 µM
GI50 (MDA-MB-435): 1.83 µM
TGI (MDA-MB-435): 4.07 µM
GI50 (CAKI-1 renal): 3.54 µM
TGI (CAKI-1 renal): 12.5 µM

CC(=O)Nc1n[n+]([O-])c2cc(C)ccc2[n+]1[O-]
TGI (OVCAR-4 ovarian): 18 µM
TGI (HOP-92 NSCLC): 7.29 µM
TGI (BT-549 breast): 14.2 µM
TGI (HCT-116 colon): 13.5 µM
TGI (HCC-2998 colon): 71 µM
TGI (OVCAR-5 ovarian): 33.5 µM
TGI (SK-MEL-2 melanoma): 26.5 µM
TGI (NCI-H460 lung): 2.14 µM
TGI (MDA-MB-435): 20.8 µM
TGI (CAKI-1 renal): 12 µM

COc1cc2c(c(OC)c1OC)-c1ccc(N=NC(N)=S)c(=O)cc1[C@@H](NC(C)=O)CC2
GI50 (OVCAR-4 ovarian): 1.43 µM
TGI (OVCAR-4 ovarian): > 100 µM
GI50 (HOP-92 NSCLC): 1.97 µM
TGI (HOP-92 NSCLC): 98.8 µM
GI50 (BT-549 breast): 0.624 µM
TGI (BT-549 breast): > 100 µM
GI50 (HCT-116 colon): 0.396 µM
GI50 (HCC-2998 colon): 0.311 µM
TGI (HCC-2998 colon): 1.76 µM
GI50 (OVCAR-5 ovarian): 2.26 µM
TGI (OVCAR-5 ovarian): > 100 µM
GI50 (SK-MEL-2 melanoma): 0.393 µM
TGI (SK-MEL-2 melanoma): > 100 µM
GI50 (NCI-H460 lung): 0.418 µM
TGI (NCI-H460 lung): 12.2 µM
GI50 (MDA-MB-435): 0.216 µM
TGI (MDA-MB-435): 0.577 µM
GI50 (CAKI-1 renal): > 24.4 µM
TGI (CAKI-1 renal): > 100 µM

Cc1cc(Cl)ccc1C(=O)c1ccc2ccccc2c1C(=O)O
TGI (OVCAR-4 ovarian): > 100 µM
TGI (HOP-92 NSCLC): > 100 µM
TGI (BT-549 breast): > 100 µM
TGI (HCT-116 colon): > 100 µM
TGI (HCC-2998 colon): > 100 µM
TGI (OVCAR-5 ovarian): > 100 µM
TGI (SK-MEL-2 melanoma): > 100 µM
TGI (NCI-H460 lung): > 100 µM
TGI (MDA-MB-435): > 100 µM
TGI (CAKI-1 renal): > 100 µM
